US4418077A, “Fluorinated amino-butyric acid and diaminobutane derivatives” (Merrell Toraude et Compagnie, priority 1980, dated 1983)

Experiments:
Format in all cases: in vivo
[1] = tested on: mice; assay: Toxicity in mice (weight loss and deaths), observed up to 12 days; details: i.p.
Description: (§1) A group of 10 male albino CD1 mice from Charles Riner, France, is given an i.p. injection of the test compound in aqueous solution daily for four consecutive days. Half of the animals are killed by decapitation 24 hours after the last dose fo the test compound. The other half of the animals are observed for up to 12 days for toxicity (as indicated by weight loss and deaths). Control animals receive an injection of the vehicle only.

[2] = as above; details: mouse, in vivo, ip, daily dose 1 mg/kg for 4 days, observed up to 12 days, read-out: Mortality (After Treatment)
Description: as §1

[3] = tested on: GABA-T; assay: GABA-T activity in brain of mice after four daily i.p. doses; details: brain 24 hours after last dose
Description: as §1
(§2) The brains are removed from the dead mice and are divided into two portions by sagittal section. One half is used for the measurement of GABA-T activity while the other is used for measuring GABA content. The GABA-T activity is measured using known methods as described by M. Jung et al., J. Neurochem., 28, 717 (1977) and 29, 797 (1977), GABA content is measured by perchloric acid or trichloroacetic acid extracts using an amino acid analyzer equiped with a fluoresence detector.

[4] = tested on: brain GABA; assay: GABA content of brain of mice after four daily i.p. doses; details: brain 24 hours after last dose
Description: as §1, §2

[5] = daily dose 2.5 mg/kg for 4 days

NC(CF)C(F)C(=O)O (stereo not drawn) [2,4-difluoro-3-amino-butyric acid, 2,4-DIFLUORO-3-AMINO-BUTYRIC ACID]
Weight Loss % ([1]; daily dose 1 mg/kg for 4 days): 0% | Weight Loss % [1, 5]: -5% | Mortality (After Treatment) ([1]; daily dose 2.5 mg/kg for 4 days, deaths by day 6): 2/5 | Weight Loss % ([1]; daily dose 5 mg/kg for 4 days): -25% | Mortality (After Treatment) ([1]; daily dose 5 mg/kg for 4 days, deaths by day 7): 5/5 | mortality at 288 h [2]: 0% | GABA-T Inhibition (%) ([3]; daily dose 1 mg/kg for 4 days): 50% | GABA-T Inhibition (%) [3, 5]: 83% | GABA-T Inhibition (%) ([3]; daily dose 5 mg/kg for 4 days): 87% | GABA Elevation (%) ([4]; daily dose 1 mg/kg for 4 days): 150% | GABA Elevation (%) [4, 5]: 225% | GABA Elevation (%) ([4]; daily dose 5 mg/kg for 4 days): 250%
